Calls of active or inactive are those of the source. No cut-off for these calls is given here.
Experiments:
Danio rerio [1] = assay: Cardioprotective activity against doxorubicin-induced Tg(cmlc2: GFP) Zebrafish assessed as […] at 60 uM measured at 72 hrs post fertilization; type: functional, organism-based
Danio rerio [2] = assay: Cardioprotective activity against doxorubicin-induced Zebrafish cardiomyopathy model assessed as survival rate at 60 uM fertilized for 24 hrs followed by compound administration for 72 hrs and measured at 96 hrs post fertilization by inverted fluorescence microscopic analysis; type: functional
Danio rerio [3] = species: Danio rerio; assay: Cardioprotective activity against doxorubicin-induced Tg(cmlc2: GFP) Zebrafish assessed as restoration of normal heart structure at 60 uM measured at 72 hrs post fertilization; type: functional, organism-based
Danio rerio [4] = assay: Cardioprotective activity against doxorubicin-induced Zebrafish cardiomyopathy model assessed as survival rate at 40 uM fertilized for 24 hrs followed by compound administration for 72 hrs and measured at 96 hrs post fertilization by inverted fluorescence microscopic analysis; type: functional
Mus musculus [5] = assay: Cardioprotective activity against doxorubicin-induced C57BL/6 mouse cardiomyopathy model assessed as increase in heart weight to tibia length ratio at 2.5 mg/kg, ip administered for 7 days by Echocardiography analysis; type: functional; conditions: time 7 day
Mus musculus [6] = assay: Cardioprotective activity against doxorubicin-induced C57BL/6 mouse cardiomyopathy model assessed as increase in ejection fraction at 2.5 mg/kg, ip administered for 7 days by Echocardiography analysis; type: functional; conditions: time 7 day
[7] = Water solubility of the compound measured for 24 hrs by HPLC analysis; type: physicochemical
[8] = Toxicity in Tg(cmlc2: GFP) Zebrafish assessed as mortality at 450 uM measured at 72 hrs post fertilization; parameters: species or system Danio rerio; conditions: in vivo
Mus musculus [9] = assay: Cardioprotective activity against doxorubicin-induced C57BL/6 mouse cardiomyopathy model assessed as increase in cardiac output at 2.5 mg/kg, ip administered for 7 days by Echocardiography analysis; type: functional; conditions: time 7 day
Mus musculus [10] = assay: Cardioprotective activity against doxorubicin-induced C57BL/6 mouse cardiomyopathy model assessed as increase in fractional shortening at 2.5 mg/kg, ip administered for 7 days by Echocardiography analysis; type: functional; conditions: time 7 day

SMILES: C[C@@H]1CC(=O)NN=C1c1ccc(NN=C(C#N)C#N)cc1 [LEVOSIMENDAN]
- Activity (Danio rerio [1]): Active
- survival at 60 µM (Danio rerio [2]): 84%
- Activity (Danio rerio [3]): Active
- survival at 40 µM (Danio rerio [4]): 75%

SMILES: C[C@@]12CC[C@@H]3[C@@](CC[C@H]4[C@@]3(C)CCC[C@@]4(C)C(=O)N3CCN(C(=O)c4ccccc4C(=O)[O-])CC3)(CC1=O)C2.[Na+]
- Ratio (Mus musculus [5]): 6.3 mg/mm
- Activity (Mus musculus [6]): 59.8%
- solubility at 24 h [7]: 54 mg/mL
- Activity [8]: Non-Toxic
- Activity (Mus musculus [9]): 10%
- Activity (Mus musculus [10]): 31.3%

Reference: ChEMBL document CHEMBL5543130, “Design, Synthesis, and In Vivo Evaluation of Isosteviol Derivatives as New SIRT3 Activators with Highly Potent Cardioprotective Effects” (J Med Chem, 2024)
